Data on one compound can be found in US20090053793A1, “Ethanol resistant and furfural resistant strains of E. coli FBR5 for production of ethanol from cellulosic biomass” (Rowan University, priority 2006, published 2009).

Some results are limits rather than exact numbers.

The nature of the experiment: Pilot batch fermentation in LB broth with xylose. Details: species or system E. coli. The following applies: pilot fermentations. On the procedure:
Pilot fermentation studies were conducted in a 3L fermentation vessel in conjunction with a BioFlo 3000 system (which is marketed by New Brunswick Scientific Co. of Edison, N.J.) to monitor temperature, dissolved oxygen, air flow rate, agitation rate and pH. The media used for fermentation consisted of LB broth, xylose at various concentrations, and ampicillin. For some runs, glucose was also added to the media (see the mixed sugar fermentation discussed in connection with FIG. 12 below). To ensure sterility, the fermentor, with the media inside, along with the condenser, and a flask of distilled water were autoclaved the day before each fermentation run. An overnight culture of the strain to be used in the fermentation was then grown the night before each run. The fermentor was connected to the BioFlo 3000 system when ready to begin the run. […] The nitrogen and water flows were then opened, whereby the fermentor was ready for the addition of the overnight culture. The following was then added to the fermentor: (1) 300 mL of sterile, filtered LB broth, (2) an amount of xylose determined as a function of the desired initial sugar concentration, (3) an amount of ampicillin such that the initial concentration in the fermentor was always 100 mg/L, and (4) the overnight culture, whereby fermentation began. […]

Take `O=C[C@H](O)[C@@H](O)[C@H](O)CO` [xylose]: the “xylose concentration found to inhibit cell growth and ethanol production” value was above 175 g/L.
